# pIC50: −log10 of the molar value.
# Tests used:
# Glucocorticoid receptor = biological target: T1, Glucocorticoid receptor (Homo sapiens, UniProt P04150); assay: Inhibition of CHO-K1 cells expressing glucocorticoid receptor; assay type: cell-based
# T1 sequence (P04150 whole entry): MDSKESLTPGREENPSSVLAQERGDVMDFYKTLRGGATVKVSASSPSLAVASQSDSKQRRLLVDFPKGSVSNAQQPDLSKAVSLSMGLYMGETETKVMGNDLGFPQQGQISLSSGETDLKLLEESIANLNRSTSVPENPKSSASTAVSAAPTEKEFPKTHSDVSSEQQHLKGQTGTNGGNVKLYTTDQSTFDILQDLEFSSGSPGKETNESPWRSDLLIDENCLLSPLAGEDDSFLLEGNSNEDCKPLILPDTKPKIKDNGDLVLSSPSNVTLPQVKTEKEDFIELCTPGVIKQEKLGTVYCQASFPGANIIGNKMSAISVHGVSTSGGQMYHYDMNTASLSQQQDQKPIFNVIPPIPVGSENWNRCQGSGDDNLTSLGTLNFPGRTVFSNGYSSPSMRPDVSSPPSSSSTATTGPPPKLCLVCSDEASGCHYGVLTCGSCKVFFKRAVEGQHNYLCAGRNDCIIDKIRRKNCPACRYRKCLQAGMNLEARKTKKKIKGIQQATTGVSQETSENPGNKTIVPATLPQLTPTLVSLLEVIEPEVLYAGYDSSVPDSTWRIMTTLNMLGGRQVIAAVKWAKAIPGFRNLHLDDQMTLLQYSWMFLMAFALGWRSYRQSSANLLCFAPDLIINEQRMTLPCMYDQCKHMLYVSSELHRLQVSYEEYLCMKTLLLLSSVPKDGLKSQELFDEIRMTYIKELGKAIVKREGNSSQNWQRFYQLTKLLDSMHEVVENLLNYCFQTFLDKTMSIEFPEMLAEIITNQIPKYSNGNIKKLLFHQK
# Androgen receptor [1] = biological target: T2, Androgen receptor (Homo sapiens, UniProt P10275); assay: Inhibition of human androgen receptor expressed in Escherichia coli
# T2 sequence (P10275 whole entry): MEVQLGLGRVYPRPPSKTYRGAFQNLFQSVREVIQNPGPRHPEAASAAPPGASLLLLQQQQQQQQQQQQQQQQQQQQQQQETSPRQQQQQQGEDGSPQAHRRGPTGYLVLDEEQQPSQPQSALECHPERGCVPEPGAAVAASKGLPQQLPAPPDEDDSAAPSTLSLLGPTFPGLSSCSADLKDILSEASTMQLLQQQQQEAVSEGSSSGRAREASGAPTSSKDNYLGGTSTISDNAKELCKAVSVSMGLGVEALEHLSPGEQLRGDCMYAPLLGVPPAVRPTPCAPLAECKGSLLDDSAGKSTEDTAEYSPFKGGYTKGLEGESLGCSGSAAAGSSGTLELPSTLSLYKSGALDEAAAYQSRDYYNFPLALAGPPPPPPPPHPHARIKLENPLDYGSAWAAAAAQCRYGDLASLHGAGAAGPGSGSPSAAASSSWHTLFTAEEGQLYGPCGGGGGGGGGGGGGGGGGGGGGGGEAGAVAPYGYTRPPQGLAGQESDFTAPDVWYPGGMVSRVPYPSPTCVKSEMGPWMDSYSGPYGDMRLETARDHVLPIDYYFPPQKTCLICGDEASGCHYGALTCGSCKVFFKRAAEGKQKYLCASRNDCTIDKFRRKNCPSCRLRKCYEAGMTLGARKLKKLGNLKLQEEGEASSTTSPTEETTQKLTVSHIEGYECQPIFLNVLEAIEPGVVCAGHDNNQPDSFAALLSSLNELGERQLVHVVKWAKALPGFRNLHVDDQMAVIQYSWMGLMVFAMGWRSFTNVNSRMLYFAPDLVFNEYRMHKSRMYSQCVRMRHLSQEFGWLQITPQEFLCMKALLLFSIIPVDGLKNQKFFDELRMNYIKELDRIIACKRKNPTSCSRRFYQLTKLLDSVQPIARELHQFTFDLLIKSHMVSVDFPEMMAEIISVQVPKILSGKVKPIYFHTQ
# Androgen receptor [2] = biological target: T2, Androgen receptor; assay: Inhibition of AR-dimerization in CHO-K1 cells expressing human androgen receptor
SMILES,pIC50 (Glucocorticoid receptor),pIC50 (Androgen receptor [1]),pIC50 (Androgen receptor [2])
CC[C@H]1C[C@@]2(C)C(CC[C@@H]2O)C2CCC3=CC(=O)CCC3=C21 (stereo partly drawn),5.89,8.70,
CCCCCCCC[C@H]1C[C@@]2(C)C(CC[C@@H]2O)C2CCC3=CC(=O)CCC3=C21 (stereo partly drawn),6.01,8.18,9.05
CCCCCCCCCCCC[C@H]1C[C@@]2(C)C(CC[C@@H]2O)C2CCC3=CC(=O)CCC3=C21 (stereo partly drawn),6.06,9.70,
CCCCCCCCCC[C@H]1C[C@@]2(C)C(CC[C@@H]2O)C2CCC3=CC(=O)CCC3=C21 (stereo partly drawn),5.74,9.10,7.07
CCCCC[C@H]1C[C@@]2(C)C(CC[C@@H]2O)C2CCC3=CC(=O)CCC3=C21 (stereo partly drawn),6.90,10.00,11.05

# From ChEMBL document CHEMBL1137214, “11beta-alkyl-Delta9-19-nortestosterone derivatives: high-affinity ligands and potent partial agonists of the androgen receptor” (J Med Chem, 2004)
